Test results: patent US20250268826A1, “IONIZABLE LIPIDOID COMPOSITIONS AND THERAPEUTIC USES THEREOF” (Flagship Pioneering Innovations VII, LLC, priority 2023, published 2025)
Read-outs that look alike come from different tables or passages of the source.

Assays:
Format in all cases: physicochemical
[1] = LNP size and polydispersity index (PDI) by dynamic light scattering (DLS)
[2] = LNP Zeta potential measured using a Zetasizer (Malvern); details: for Zeta potential: hEPO mRNA, N:P 6
[3] = Encapsulation efficiency (EE %) by fluorescence based Ribogreen assay
[4] = Table 3, LNP 50:10:38.5:1.5 mol %, hEPO mRNA, N:P 6
[5] = Table 3, LNP lipid:DSPC:Cholesterol:DMG-PEG2k 50:10:38.5:1.5 mol %, hEPO mRNA, N:P 6
[6] = Table 5, LNP 50:10:38.5:1.5 mol %, hEPO mRNA, N:P 6
[7] = Table 5, LNP 60:0:38.5:1.5 mol %, hEPO mRNA, N:P 6
[8] = Table 5, LNP Lipid:DSPC:Cholesterol:DMG-PEG2k 50:10:38.5:1.5 mol %, hEPO mRNA, N:P 6
[9] = Table 5, LNP 50:10:38.5:1.5 mol %
[10] = Table 1, LNP lipid:DSPC:Cholesterol:DMG-PEG2k 50:10:38.5:1.5 mol %, hEPO mRNA, N:P 6
[11] = Table 1, LNP lipid:DSPC:Cholesterol:DMG-PEG2k 50:10:38.5:1.5 mol %
[12] = Table 11, LNP with hEPO mRNA, Lipid:DSPC:Cholesterol:DMG-PEG2k 50:10:38.5:1.5 mol % (ALC-0315: 46.3:9.4:42.7:1.6), N:P ratio 6, HEPES/sodium chloride/sucrose buffer, stored at −80C
[13] = Table 8, LNP 50:10:38.5:1.5 mol %, hEPO mRNA, N:P 6
[14] = Table 8, LNP Lipid:DSPC:Cholesterol:DMG-PEG2k 50:10:38.5:1.5 mol %, hEPO mRNA, N:P 6
[15] = Table 9, LNP 50:10:38.5:1.5 mol %, hEPO mRNA, N:P 6

With `CCCCCCCCC(CCCCCC)C(=O)OCCN(CCOC(=O)C(CCCCCC)CCCCCCCC)C(=O)CNCCO` (centres unmarked) [Compound 305] the PDI [1, 4] was 0.051, the Size [1, 5] was 53.3 nm and the PDI [1, 6] was 0.05. For the same molecule, the PDI [1, 7] was 0.098, the Size [1, 7] was 52.7 nm and the Size [1, 8] was 59.3 nm. The Zeta potential [2, 9] was −0.5189 mV, the Zeta potential ([2]; Table 5, LNP 60:0:38.5:1.5 mol %) was −2.027 mV and the “Encapsulation Efficiency %” value [3, 4] was 99.3%. For the same molecule, the “Encapsulation Efficiency %” value [3, 6] was 99.5% and the “Encapsulation Efficiency %” value [3, 7] was 99.5%.
`CCCCCCCC/C=C\CCCCCCCC(=O)OCCN(CCOC(=O)CCCCCCC/C=C\CCCCCCCC)C(=O)C(N)Cc1ccccc1` (centres unmarked) [Compound 113] gave a PDI [1, 10] of 0.126, a Size [1, 10] of 79.1 nm and a PDI [1, 4] of 0.068. The Size [1, 5] was 61.4 nm, the Zeta potential [2, 11] was −2.878 mV and the “Encapsulation Efficiency %” value [3, 10] was 95.2%. The “Encapsulation Efficiency %” value [3, 4] was 99.7%.
In the case of `CCCCCCCCC(CCCCCC)C(=O)OCCN(CCOC(=O)C(CCCCCC)CCCCCCCC)C(=O)C(C)CCN(C)CCC.Cl` (centres unmarked) [Compound 987i], the PDI [1, 12] is reported as 0.059, the “Size (nm)” value [1, 12] is reported as 71.7 nm and the “Zeta potential (mV)” value [2, 12] is reported as −4.1 mV. The “Encapsulation Efficiency %” value [3, 12] was 94.9%.
With `CCCCCCCCC(CC)C(=O)OCCN(CCOC(=O)C(CC)CCCCCCCC)C(=O)C(C)N` (centres unmarked) [Compound 610] the PDI [1, 6] was 0.202, the Size [1, 8] was 77.3 nm and the Zeta potential [2, 9] was −1.535 mV. For the same molecule, the “Encapsulation Efficiency %” value [3, 6] was 99.7%.
With `CCCCCCCCCC(=O)OCCN(CCOC(=O)CCCCCCCCC)C(=O)C(N)CO` (centres unmarked) [Compound 135] the PDI [1, 10] was 0.228, the Size [1, 10] was 111.3 nm and the Zeta potential [2, 11] was 2.909 mV. For the same molecule, the “Encapsulation Efficiency %” value [3, 10] was 89.8%.
For `CCCCCCCCC(CCCCCC)C(=O)OCCN(CCOC(=O)C(CCCCCC)CCCCCCCC)C(=O)CCCNCC.Cl` (centres unmarked) [Compound 935], the PDI [1, 13] was 0.167, the Size [1, 14] was 111.9 nm and the Zeta potential ([2]; Table 8, LNP 50:10:38.5:1.5 mol %) was −9.5 mV. The “Encapsulation Efficiency %” value [3, 13] was 99.9%.
With `CCCCCCCCC(CCCCCC)C(=O)OCCN(CCOC(=O)C(CCCCCC)CCCCCCCC)C(=O)CN1CCCCC1.Cl` (centres unmarked) [Compound 960d] the PDI [1, 15] was 0.133, the Size ([1]; Table 9, LNP Lipid:DSPC:Cholesterol:DMG-PEG2k 50:10:38.5:1.5 mol %, hEPO mRNA, N:P 6) was 74.5 nm and the Zeta potential ([2]; Table 9, LNP 50:10:38.5:1.5 mol %) was −32.3 mV. For the same molecule, the “Encapsulation Efficiency %” value [3, 15] was 99.5%.
With `CCCCCCCC/C=C\CCCCCCCC(=O)OCCN(CCOC(=O)CCCCCCC/C=C\CCCCCCCC)C(=O)[C@@H](N)Cc1ccccc1.Cl` [Compound 202] the PDI [1, 4] was 0.033, the Size [1, 5] was 60.7 nm and the “Encapsulation Efficiency %” value [3, 4] was 99.7%.
For `CCCCCCCC/C=C\CCCCCCCC(=O)OCCN(CCOC(=O)CCCCCCC/C=C\CCCCCCCC)C(=O)C(N)Cc1c[nH]cn1` (centres unmarked) [Compound 125], the PDI [1, 10] was 0.46, the Size [1, 10] was 109.4 nm and the “Encapsulation Efficiency %” value [3, 10] was 99.4%.
For `CCCCCCCCC(CCCCCC)C(=O)OCCN(CCOC(=O)C(CCCCCC)CCCCCCCC)C(=O)C(N)Cc1c[nH]cn1` (centres unmarked) [Compound 129], the Size [1, 10] was 93.8 nm and the “Encapsulation Efficiency %” value [3, 10] was 99.7%.
With `CCCCCCCCC(CCCCCC)C(=O)OCCN(CCOC(=O)C(CCCCCC)CCCCCCCC)C(=O)CC(C)NCCC.Cl` (centres unmarked) [Compound 948] the PDI [1, 13] was 0.188, the Size [1, 14] was 74.1 nm and the “Encapsulation Efficiency %” value [3, 13] was 99.7%.
In the case of `CCCCCCCC/C=C\CCCCCCCC(=O)OCCN(CCOC(=O)CCCCCCC/C=C\CCCCCCCC)C(=O)[C@H](C)N.Cl` [Compound 201], the PDI [1, 4] is reported as 0.032, the Size [1, 5] is reported as 63.1 nm and the “Encapsulation Efficiency %” value [3, 4] is reported as 99.9%.
For `CCCCCCCCC(CCCCCC)C(=O)OCCN(CCOC(=O)C(CCCCCC)CCCCCCCC)C(=O)CN(C)C` (centres unmarked) [Compound 961], the “Encapsulation Efficiency %” value [3] was 99.8%.
